{"source": "patent US20100216802A1", "about": "“PTERIDINE DERIVATIVES AS POLO-LIKE KINASE INHIBITORS USEFUL IN THE TREATMENT OF CANCER” (CHROMA THERAPEUTICS LTD., priority 2006, published 2010)"}
{"biological_target": "T1, PLK1 (Homo sapiens, UniProt P53350)", "T1 construct": "purchased Invitrogen (Paisley, UK)", "T1 sequence (P53350 whole entry)": "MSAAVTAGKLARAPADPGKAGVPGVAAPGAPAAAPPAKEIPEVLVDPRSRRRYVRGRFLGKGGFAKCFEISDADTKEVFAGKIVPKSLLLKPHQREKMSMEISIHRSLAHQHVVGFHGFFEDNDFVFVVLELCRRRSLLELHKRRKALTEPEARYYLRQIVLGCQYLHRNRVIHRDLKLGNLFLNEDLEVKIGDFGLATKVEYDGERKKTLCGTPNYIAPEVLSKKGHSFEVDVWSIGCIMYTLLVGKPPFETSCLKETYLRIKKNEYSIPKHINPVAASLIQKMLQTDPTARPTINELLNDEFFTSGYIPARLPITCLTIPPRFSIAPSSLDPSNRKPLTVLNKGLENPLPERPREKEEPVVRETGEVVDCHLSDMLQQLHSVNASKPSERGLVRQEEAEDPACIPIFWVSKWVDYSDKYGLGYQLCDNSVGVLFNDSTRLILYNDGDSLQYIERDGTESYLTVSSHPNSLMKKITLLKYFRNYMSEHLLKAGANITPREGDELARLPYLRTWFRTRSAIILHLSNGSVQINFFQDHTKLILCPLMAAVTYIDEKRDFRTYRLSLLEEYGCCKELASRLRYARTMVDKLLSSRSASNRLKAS", "assay": "PLK1 enzyme assay (Z'-LYTE, Invitrogen)", "type": "biochemical", "settings": "ATP at or close to Km; read-out: Inhibitor Activity vs PLK1", "protocol": "(§1) The ability of compounds to inhibit PLK-1 kinase activity was measured in an assay performed by Invitrogen (Paisley, UK). The Z′-LYTE™ biochemical assay employs a fluorescence-based, coupled-enzyme format and is based on the differential sensitivity of phosphorylated and non-phosphorylated peptides to proteolytic cleavage. The peptide substrate is labelled with two fluorophores—one at each end—that make up a FRET pair. In the primary reaction, the kinase transfers the gamma-phosphate of ATP to a single serine or threonine residue in a synthetic FRET-peptide. In the secondary reaction, a site-specific protease recognizes and cleaves non-phosphorylated FRET-peptides. Phosphorylation of FRET-peptides suppresses cleavage by the Development Reagent. Cleavage disrupts FRET between the donor (i.e., coumarin) and acceptor (i.e., fluorescein) fluorophores on the FRET-peptide, whereas uncleaved, phosphorylated FRET-peptides maintain FRET. A […] method, which calculates the ratio (the Emission Ratio) of donor emission to acceptor emission after excitation of the donor fluorophore at 400 nm, is used to quantitate reaction progress.\n(§2) The assay is performed at an ATP concentration at, or close to, the Km. After the 60 minute Kinase Reaction incubation at RT, 5 μL of a 1:8 dilution of Development Reagent is added. The assay plate is incubated for a further 60 minutes at RT and read on a fluorescence plate reader.\n(§3) Duplicate data points are generated from a ⅓ log dilution series of a stock solution of test compound in DMSO. Nine dilutions steps are made from a top concentration of 10 μM, and a ‘no compound’ blank is included. Data is collected and analysed using XLfit software from IDBS.", "units": {"IC50": "nM"}}
{"compound": "CC[C@@H]1C(=O)N(C)c2cnc(Nc3ccc(C[C@H](N)C(=O)OC4CCCC4)cc3)nc2N1C1CCCC1", "note": "[Example 1, Cyclopentyl 4-{[(7R)-8-cyclopentyl-7-ethyl-5-methyl-6-oxo-5,6,7,8-tetrahydropteridin-2-yl]amino}-L-phenylalaninate]", "IC50": "< 100"}
{"compound": "CC[C@@H]1C(=O)N(C)c2cnc(Nc3ccc(/C=C/C[C@H](N)C(=O)OC4CCCC4)cc3)nc2N1C1CCCC1", "note": "[Example 2]", "IC50": "< 100"}
{"compound": "CC[C@@H]1C(=O)N(C)c2cnc(Nc3ccc(C(=O)NC4CCN(CC[C@H](N)C(=O)O[C@@H]5C[C@H](C)CC[C@H]5C(C)C)CC4)cc3OC)nc2N1C1CCCC1", "note": "[Example 32]", "IC50": "< 100"}
{"compound": "CC[C@@H]1C(=O)N(C)c2cnc(Nc3ccc(C(=O)Nc4ccc(C[C@H](N)C(=O)O)cc4)cc3OC)nc2N1C1CCCC1", "note": "[Example 33]", "IC50": "< 100"}
{"compound": "CC[C@@H]1C(=O)N(C)c2cnc(Nc3ccc(C[C@H](N)C(=O)O)cc3)nc2N1C1CCCC1", "note": "[Example 34, 4-{[(7R)-8-Cyclopentyl-7-ethyl-5-methyl-6-oxo-5,6,7,8-tetrahydropteridin-2-yl]amino}-L-phenylalanine]", "IC50": "< 100"}
{"compound": "CC[C@@H]1C(=O)N(C)c2cnc(Nc3ccc(/C=C/C[C@H](N)C(=O)O)cc3)nc2N1C1CCCC1", "note": "[Example 35, (2S,4E)-2-Amino-5-(4-{[(7R)-8-cyclopentyl-7-ethyl-5-methyl-6-oxo-5,6,7,8-tetrahydropteridin-2-yl]amino}phenyl)pent-4-enoic acid]", "IC50": "< 100"}
{"compound": "CC[C@@H]1C(=O)N(C)c2cnc(Nc3ccc(OCC[C@H](N)C(=O)O)cc3)nc2N1C1CCCC1", "note": "[Example 36, O-(4-{[(7R)-8-Cyclopentyl-7-ethyl-5-methyl-6-oxo-5,6,7,8-tetrahydropteridin-2-yl]amino}phenyl)-L-homoserine]", "IC50": "< 100"}
{"compound": "CC[C@@H]1C(=O)N(C)c2cnc(Nc3ccc(OCC[C@H](N)C(=O)O)cc3OC)nc2N1C1CCCC1", "note": "[Example 37, O-(4-{[(7R)-8-Cyclopentyl-7-ethyl-5-methyl-6-oxo-5,6,7,8-tetrahydropteridin-2-yl]amino}-3-methoxyphenyl)-L-homoserine]", "IC50": "< 100"}
{"compound": "CCC1C(=O)N(C)c2cnc(Nc3ccc(C(=O)NCCC(N)C(=O)O)cc3OC)nc2N1C1CCCC1", "note": "[Example 38, (2S)-2-Amino-4-[(4-{[(7R)-8-cyclopentyl-7-ethyl-5-methyl-6-oxo-5,6,7,8-tetrahydropteridin-2-yl]amino}-3-methoxybenzoyl)amino]butananoic acid]", "IC50": "< 100"}
{"compound": "CC[C@@H]1C(=O)N(C)c2cnc(Nc3ccc(C(=O)N[C@@H]4CN[C@H](C(=O)O)C4)cc3OC)nc2N1C1CCCC1", "note": "[Example 39, (4S)-4-[(4-{[(7R)-8-Cyclopentyl-7-ethyl-5-methyl-6-oxo-5,6,7,8-tetrahydropteridin-2-yl]amino}-3-methoxybenzoyl)amino]-L-proline]", "IC50": "< 100"}
{"compound": "CC[C@@H]1C(=O)N(C)c2cnc(Nc3ccc(C(=O)NCCCC[C@H](N)C(=O)O)cc3OC)nc2N1C1CCCC1", "note": "[Example 40, N^6-(4-{[(7R)-8-cyclopentyl-7-ethyl-5-methyl-6-oxo-5,6,7,8-tetrahydropteridin-2-yl]amino}-3-methoxybenzoyl)lysine]", "IC50": "< 100"}
{"compound": "CC[C@@H]1C(=O)N(C)c2cnc(Nc3ccc(C(=O)NCc4ccc(OCC[C@H](N)C(=O)O)cc4)cc3OC)nc2N1C1CCCC1", "note": "[Example 41, O-(4-{[(4-{[(7R)-8-Cyclopentyl-7-ethyl-5-methyl-6-oxo-5,6,7,8-tetrahydropteridin-2-yl]amino}-3-methoxybenzoyl)amino]methyl}phenyl)-L-homoserine]", "IC50": "< 100"}
{"compound": "CC[C@@H]1C(=O)N(C)c2cnc(Nc3ccc(C(=O)N4CCNC(C(=O)O)C4)cc3OC)nc2N1C1CCCC1", "note": "(stereo partly drawn) [Example 42, 4-(4-{[(7R)-8-Cyclopentyl-7-ethyl-5-methyl-6-oxo-5,6,7,8-tetrahydropteridin-2-yl]amino}-3-methoxybenzoyl)piperazine-2-carboxylic acid]", "IC50": "< 100"}
{"compound": "CC[C@@H]1C(=O)N(C)c2cnc(Nc3ccc(C(=O)NCCN4CCNC(C(=O)O)C4)cc3OC)nc2N1C1CCCC1", "note": "(stereo partly drawn) [Example 43, 4-{2-[(4-{[(7R)-8-Cyclopentyl-7-ethyl-5-methyl-6-oxo-5,6,7,8-tetrahydropteridin-2-yl]amino}-3-methoxybenzoyl)amino]ethyl}piperazine-2-carboxylic acid]", "IC50": "< 100"}
{"compound": "CC[C@@H]1C(=O)N(C)c2cnc(Nc3ccc(C(=O)NC4CCN(CC[C@H](N)C(=O)O)C4)cc3OC)nc2N1C1CCCC1", "note": "(stereo partly drawn) [Example 44, (2S)-2-amino-4-{3-[(4-{[(7R)-8-Cyclopentyl-7-ethyl-5-methyl-6-oxo-5,6,7,8-tetrahydropteridin-2-yl]amino}-3-methoxybenzoyl)amino]pyrrolidin-1-yl}butanoic acid]", "IC50": "< 100"}
{"compound": "CC[C@@H]1C(=O)N(C)c2cnc(Nc3ccc(C(=O)NC4C5CN(CC[C@H](N)C(=O)O)CC54)cc3OC)nc2N1C1CCCC1", "note": "(stereo partly drawn) [Example 45, (2S)-2-Amino-4-{6-[(4-{[(7R)-8-cyclopentyl-7-ethyl-5-methyl-6-oxo-5,6,7,8-tetrahydropteridin-2-yl]amino}-3-methoxybenzoyl)amino]-3-azabicyclo[3.1.0]hex-3-yl} butanoic acid]", "IC50": "< 100"}
{"compound": "CC[C@@H]1C(=O)N(C)c2cnc(Nc3ccc(C(=O)NC4CCN(CCC[C@H](N)C(=O)O)CC4)cc3OC)nc2N1C1CCCC1", "note": "[Example 46, 5-{4-[(4-{[(7R)-8-Cyclopentyl-7-ethyl-5-methyl-6-oxo-5,6,7,8-tetrahydropteridin-2-yl]amino}-3-methoxybenzoyl)amino]piperidin-1-yl}-L-norvaline]", "IC50": "< 100"}
{"compound": "CC[C@@H]1C(=O)N(C)c2cnc(Nc3ccc(C(=O)NC4CCN(CCC[C@@H](N)C(=O)O)CC4)cc3OC)nc2N1C1CCCC1", "note": "[Example 47, 5-{4-[(4-{[(7R)-8-Cyclopentyl-7-ethyl-5-methyl-6-oxo-5,6,7,8-tetrahydropteridin-2-yl]amino}-3-methoxybenzoyl)amino]piperidin-1-yl}-D-norvaline]", "IC50": "< 100"}
{"compound": "CC[C@@H]1C(=O)N(C)c2cnc(Nc3ccc(C(=O)NC4CCN(CC[C@H](N)C(=O)O)CC4)cc3C)nc2N1C1CCCC1", "note": "[Example 48, (2S)-2-Amino-4-{4-[(4-{[(7R)-8-cyclopentyl-7-ethyl-5-methyl-6-oxo-5,6,7,8-tetra hydropteridin-2-yl]amino}-3-methylbenzoyl)amino]piperidin-1-yl}butanoic acid]", "IC50": "< 100"}
{"compound": "CC[C@@H]1C(=O)N(C)c2cnc(Nc3ccc(C(=O)NC4CCN(CC[C@H](N)C(=O)O)CC4)cc3F)nc2N1C1CCCC1", "note": "[Example 49, (2S)-2-Amino-4-{4-[(4-{[(7R)-8-cyclopentyl-7-ethyl-5-methyl-6-oxo-5,6,7,8-tetra hydropteridin-2-yl]amino}-3-fluorobenzoyl)amino]piperidin-1-yl}butanoic acid]", "IC50": "< 100"}
{"compound": "CC[C@@H]1C(=O)N(C)c2cnc(Nc3ccc(C(=O)NC4CCN(CC[C@@H](N)C(=O)O)CC4)cc3OC)nc2N1C1CCCC1", "note": "[Example 50, (2R)-2-Amino-4-{4-[(4-{[(7R)-8-cyclopentyl-7-ethyl-5-methyl-6-oxo-5,6,7,8-tetra hydropteridin-2-yl]amino}-3-methoxybenzoyl)amino]piperidin-1-yl}butanoic acid]", "IC50": "< 100"}
{"compound": "CC[C@@H]1C(=O)N(C)c2cnc(Nc3ccc(C(=O)N4CCNC(C(=O)O)C4)cc3OC)nc2N1C1CCCC1", "note": "(stereo partly drawn) [Example 52, 4-(4-{[(7R)-8-cyclopentyl-7-ethyl-5-methyl-6-oxo-5,6,7,8-tetrahydropteridin-2-yl]amino}-3-methoxbenzoyl)piperazine-2-carboxylic acid]", "IC50": "< 100"}
{"compound": "CC[C@@H]1C(=O)N(C)c2cnc(Nc3ccc(C(=O)NC4CCN(CC[C@H](N)C(=O)O)CC4)cc3OC)nc2N1C1CCCC1", "note": "[Example 53, (2S)-2-amino-4-{4-[(4-{[(7R)-8-cyclopentyl-7-ethyl-5-methyl-6-oxo-5,6,7,8-tetrahydropteridin-2-yl]amino}-3-methoxybenzoyl)amino]piperidin-1-yl}butanoic acid]", "IC50": "< 100"}
{"biological_target": "T1, PLK1", "assay": "PLK1 enzyme assay (Z'-LYTE, Invitrogen)", "type": "biochemical", "settings": "acid of the ester; read-out: Inhibition of PLK (IC50, nM) acid", "protocol": "as §1, §2, §3", "units": {"IC50": "nM"}}
{"compound": "CC[C@@H]1C(=O)N(C)c2cnc(Nc3ccc(C(=O)NC4CCN(CC[C@H](N)C(=O)O)CC4)cc3OC)nc2N1C1CCCC1", "note": "[Example 53, (2S)-2-amino-4-{4-[(4-{[(7R)-8-cyclopentyl-7-ethyl-5-methyl-6-oxo-5,6,7,8-tetrahydropteridin-2-yl]amino}-3-methoxybenzoyl)amino]piperidin-1-yl}butanoic acid]", "IC50": 6}
{"test_system": "HCT 116 cell line", "assay": "Cell inhibition assay method A (WST-1, 120 hrs)", "type": "cell-based", "settings": "Homo sapiens, HCT-116, method A, read-out: Inhibitor Activity vs HCT 116 cell line (method A)", "protocol": "Cell inhibition assays were carried out using either method A or method B\nCells were seeded in 96W tissue culture plates (1 well=30 mm^2) at a density of […] per well in 50 μL of the appropriate culture medium (see below). 24 hrs later […] of the compound prepared in the same medium was added as 4 fold dilutions to give final concentrations in the range 0.15 nM-2500 nM (n=6 for each concentration). The plates were then incubated at 37° C., 5% CO2 for 120 hrs. Cell proliferation was assessed using WST-1 (a metabolic indicator dye, Roche Cat no. 1 644 807) according to the manufacturers instructions. The results were calculated as percentage of vehicle response and IC50 values represent the concentration of compound that inhibited the vehicle response by 50%.\nHCT-116 culture medium —Dulbeccos MEM (Sigma D6546) plus 10% heat inactivated fetal calf serum (Hyclone SH30071 Thermo Fischer Scientific) containing 2 mM Glutamine (Sigma cat no G-7513) and 50 U/ml Penicillin and Streptomycin Sulphate (Sigma Cat no P-0781).", "units": {"IC50": "nM"}}
{"compound": "CC[C@@H]1C(=O)N(C)c2cnc(Nc3ccc(C[C@H](N)C(=O)OC4CCCC4)cc3)nc2N1C1CCCC1", "note": "[Example 1, Cyclopentyl 4-{[(7R)-8-cyclopentyl-7-ethyl-5-methyl-6-oxo-5,6,7,8-tetrahydropteridin-2-yl]amino}-L-phenylalaninate]", "IC50": "100 to 500"}
{"compound": "CC[C@@H]1C(=O)N(C)c2cnc(Nc3ccc(/C=C/C[C@H](N)C(=O)OC4CCCC4)cc3)nc2N1C1CCCC1", "note": "[Example 2]", "IC50": "< 100"}
